Test system: athletes
Conditions: about half the dose provided from other preparations
From the text: (The actual dose depended on the athlete.)
The performance evaluations were made by experienced coaches, overlooking standard athletic tasks.

creatine α-ketoglutarate [product of the invention]
time after delivery to peak performance: ten

Reference: patent publication US8624053B2, “Method to produce a stable dry ionic-bonded creatine α ketoglutarate of high oral absorbability” (priority 2012, dated 2014)
